Key:
[1] = tested on: fluconazole resistant C. albicans strain DSY551 biofilm; details: Table 2
[2] = tested on: fluconazole resistant C. albicans strain DSY735 biofilm; details: Table 2
[3] = MBIC of fluconazole in combination with ARAS

SMILES: OC(Cn1cncn1)(Cn1cncn1)c1ccc(F)cc1F [FLU, fluconazole, reference compound]
- FBIC FLU [1, 3]: 2 µg/mL
- MBIC FLU ([1]; fluconazole alone): >64 µg/mL
- FBIC FLU [2, 3]: 4 µg/mL
- MBIC FLU ([2]; fluconazole alone): >64 µg/mL

From patent US20210379010A1, “COMPOSITIONS COMPRISING CANNABINOIDS FOR USE IN THE TREATMENT OF BIOFILM AND CONDITIONS ASSOCIATED WITH MICROBIAL, FUNGAL, BACTERIAL INFECTIONS” (Yissum Research Development Company of The Hebrew …, priority 2018, published 2021)
